Series [1] can be described thus: Mouse pharmacokinetic study, single oral dose, plasma. In kind it is in vivo, NOD/SCID mice. The protocol: Mouse pharmacokinetic (PK) studies were conducted using Crystalline Form A of 6-(4-cyclopropyl-6-methoxypyrimidin-5-yl)-1-(4-(1-isopropyl-4-(trifluoromethyl)-1H-imidazol-2-yl)benzyl)-1H-pyrazolo[3,4-d]pyrimidine, as disclosed herein, Crystalline Form 2 of a gentisic acid co-crystal of 6-(4-cyclopropyl-6-methoxypyrimidin-5-yl)-1-(4-(1-isopropyl-4-(trifluoromethyl)-1H-imidazol-2-yl)benzyl)-1H-pyrazolo[3,4-d]pyrimidine, as disclosed herein, and Crystalline Form 8 of a benzoic acid co-crystal of 6-(4-cyclopropyl-6-methoxypyrimidin-5-yl)-1-(4-(1-isopropyl-4-(trifluoromethyl)-1H-imidazol-2-yl)benzyl)-1H-pyrazolo[3,4-d]pyrimidine, as disclosed herein.
The PK studies consisted of single dose oral exposure studies, which were conducted in female NOD/SCID mice (approximately 6 to 8 weeks, and 20-30 g at the time of study) using a compound dose of 300 mg/kg and a dosing volume of 10 mL/kg. The mice were fasted overnight prior to dosing. Animals had free access to food and water post-dosing.
Blood was sampled serially from the dorsal metatarsal vein at pre-dose, 0.25, 0.5, 1, 2, 4, 8, 24, 48 (crystalline Form 2 only), and 72 hours (crystalline Form 2 only) post PO dosing. Approximately 0.03 mL blood was collected at each time point and centrifuged at 4000 G for 5 minutes at 4° C. to provide plasma. The plasma samples were then stored in a freezer at −75±15° C. prior to LC-MS/MS analysis.
Concentrations of each compound in the plasma samples were then analyzed using an LC-MS/MS method. WinNonlin (Phoenix™, version 6.1) or other similar software was used for PK calculations. The following PK parameters were calculated, whenever possible from the plasma concentration versus time data: Cmax, Tmax, T1/2, AUCinf, and AUClast. The PK data were described using descriptive statistics such as mean with standard deviation.
Mouse pharmacokinetic (PK) studies were conducted using Crystalline Form 8 of 6-(4-cyclopropyl-6-methoxypyrimidin-5-yl)-1-(4-(1-isopropyl-4-(trifluoromethyl)-1H-imidazol-2-yl)benzyl)-1H-pyrazolo[3,4-d]pyrimidine, as disclosed herein.
Blood was sampled serially from the dorsal metatarsal vein at pre-dose, 0.25, 0.5, 1, 2, 4, 8, and 24 hours post PO dosing. Approximately 0.03 mL blood was collected at each time point and centrifuged at 4000 G for 5 minutes at 4° C. to provide plasma. The plasma samples were then stored in a freezer at −75±15° C. prior to LC-MS/MS analysis.
Concentrations of compound in the plasma samples were then analyzed using an LC-MS/MS method. WinNonlin (Phoenix™, version 6.1) or other similar software was used for PK calculations. The following PK parameters were calculated, whenever possible from the plasma concentration versus time data: Cmax, Tmax, T1/2, AUCinf, and AUClast. The PK data were described using descriptive statistics such as mean with standard deviation.

Series [2] in a line: Distribution in mouse brain and plasma after repeated oral dosing. As to conditions: female NOD SCID mice; for concentration at 4 h / Kp at 4 h: 4 h (Day 28); for concentration at 24 h / Kp at 24 h: 24 h (Day 28); for Kp at 4 h / Kp at 24 h: brain/plasma, read-out: B/P Ratio. The series is classed as in vivo. How it is done:
Female NOD SCID mice of an age between 6-8 weeks and a body weight range of 18-22 g were purchased from Beijing Anikeeper Biotech Co, Ltd. Animals were habituated to the environment for at least 7 days prior to study initiation. Mice were dosed with Crystalline Form 2 at either 100 mg/kg or 300 mg/kg dose levels via oral gavage for 28 days. After 24 hours following 27 doses of compound, three mice were euthanized via CO2. After four hours following 28 doses of compound, three mice were euthanized via CO2. At each time point the whole brain was collected. In addition, approximately 0.03 mL of blood was collected at each time point and centrifuged at 4000 G for 5 minutes at 4° C. to provide plasma. Samples were then stored in a freezer at −75±15° C. prior to LC-MS/MS analysis. Concentrations of compound in brain homogenates (ng/g) and plasma (ng/ml) were then analyzed using an LC-MS/MS method. The PK data were described using descriptive statistics such as mean with standard deviation.

The nature of series [3]: Distribution in rat brain and plasma after single oral dose. The series is classed as in vivo, Sprague Dawley rats. As to conditions: single oral dose 100 mg/kg; for Kp / Cmax / Tmax / half-life / AUC(0-inf): Sprague Dawley, rat; for Kp: brain and plasma, read-out: B/P Conc. Ratio at tmax. How it is done: Male and female Sprague Dawley rats were purchased from Beijing Anikeeper Biotech Co, Ltd. Animals were habituated to the environment prior to study initiation. Rats were dosed with single dose of 100 mg/kg crystalline Form 2 via oral gavage. The rats were fasted overnight prior to dosing. Animals had access to food from 2 hours post dose and free access to water throughout the study. Approximately 0.2 mL of blood was sampled via jugular vein at each time point and centrifuged at 4000 G for 5 minutes at 4° C. to provide plasma. Samples were then stored in a freezer at −75±15° C. prior to LC-MS/MS analysis. Whole brain was collected after hemoperfusion and snap frozen on dry ice prior to storage at −75±15° C. Prior to LC-MS/MS analysis whole brains were weighed and homogenized with water by tissue weight (g) to water volume (ml) ratio 1:3 before analysis. Actual concentration is the measured value multiplied by the dilution factor. The PK data were described using descriptive statistics such as mean with standard deviation.

The mark [4] stands for this setting: Mouse 9, single PO dose 300 mg/kg, plasma, 300 mg/kg.
The mark [5] stands for this setting: brain, 100 mg/kg QD oral gavage, read-out: Brain Conc.
The mark [6] stands for this setting: brain, 300 mg/kg QD oral gavage, read-out: Brain Conc.
[7] abbreviates: plasma, 100 mg/kg QD oral gavage, read-out: Plasma Conc.
Setting [8] is: plasma, 300 mg/kg QD oral gavage, read-out: Plasma Conc.
Setting [9] is: Mean, female NOD/SCID mice, single PO dose 300 mg/kg, plasma, 300 mg/kg.
Setting [10] is: Mouse 8, single PO dose 300 mg/kg, plasma, 300 mg/kg.
The mark [11] stands for this setting: female, NOD/SCID, mouse, plasma, po, 300 mg/kg, Mouse 11, single PO dose 300 mg/kg.
Where [12] appears, read: female, NOD/SCID, mouse, plasma, po, 300 mg/kg, Mouse 12, single PO dose 300 mg/kg.

Where two headings read alike, the source gives them in different places.

As a reminder, the Tmax is the time at which the peak concentration occurs. Usually half-life stands for the time in which the quantity being followed falls by half. High values mean slow decline, low ones rapid decline. As to `COc1ncnc(C2CC2)c1-c1ncc2cnn(Cc3ccc(-c4nc(C(F)(F)F)cn4C(C)C)cc3)c2n1` [Crystalline Form A, 6-(4-cyclopropyl-6-methoxypyrimidin-5-yl)-1-(4-(1-isopropyl-4-(trifluoromethyl)-1H-imidazol-2-yl)benzyl)-1H-pyrazolo[3,4-d]pyrimidine], the Tmax in series [1] (setting [4]) was determined as 4.00 h; in series [1] (female, NOD/SCID, mouse, plasma, po, 300 mg/kg, Mouse 7, single PO dose 300 mg/kg, plasma, read-out: Tmax), 8 h. Also, in series [1] (female, NOD/SCID, mouse, plasma, po, 300 mg/kg, Mouse 8, single PO dose 300 mg/kg), the half-life was 6.79 h.
What is called Cmax is the peak of the concentration-time curve. As usually defined, the AUC(0-inf) is the area under the concentration-time curve extrapolated to infinity. Take `COc1ncnc(C2CC2)c1-c1ncc2cnn(Cc3ccc(-c4nc(C(F)(F)F)cn4C(C)C)cc3)c2n1` [Crystalline Form 2, 6-(4-cyclopropyl-6-methoxypyrimidin-5-yl)-1-(4-(1-isopropyl-4-(trifluoromethyl)-1H-imidazol-2-yl)benzyl)-1H-pyrazolo[3,4-d]pyrimidine]: the concentration at 4 h in series [2] (setting [5]) came to 1520 ± 559 ng/g; in series [2] (setting [6]) it was 6500 ± 1050 ng/g; in series [2] (setting [7]) it was 5040 ± 694 ng/mL; in series [2] (setting [8]) it was 15300 ± 2320 ng/mL. Besides, the concentration at 24 h was determined as 19.5 ng/g in series [2] (setting [5]), 66.1 ± 81.7 ng/g in series [2] (setting [6]), 178 ± 165 ng/mL in series [2] (setting [7]) and 667 ± 852 ng/mL in series [2] (setting [8]). Moreover, the Kp at 4 h in series [2] (100 mg/kg QD oral gavage) is 0.306 ± 0.125; in series [2] (300 mg/kg QD oral gavage), 0.424 ± 0.018. The figures for the Kp at 24 h in series [2] (100 mg/kg QD oral gavage) and in series [2] (300 mg/kg QD oral gavage) were 0.091 ± 0.014 and 0.102 ± 0.007, respectively. Further, the “AUC0−∞” value in series [3] (Female SD rats, brain) stood at 120933 ng·h/g; in series [3] (Male SD rats, brain), 60596 ng·h/g. Further, the values for the Kp in series [3] (Female SD rats) and in series [3] (Male SD rats) were 0.58 and 0.731, respectively. The Cmax in series [3] (Female SD rats, brain) was 5610 ng/g; in series [3] (Female SD rats, plasma) it was 9760 ng/mL; in series [3] (Male SD rats, brain) it was 3900 ng/g; in series [3] (Male SD rats, plasma) it was 5300 ng/mL; in series [1] (setting [9]) it was 28900 ng/mL; in series [1] (setting [10]), 28900 ng/mL. This compound yielded a Cmax in series [1] (setting [4]) of 29000 ng/mL. In addition, the Tmax in series [3] (Female SD rats, brain) was 8 h; in series [3] (Female SD rats, plasma) it was 8 h; in series [3] (Male SD rats, brain), 8 h; in series [3] (Male SD rats, plasma), 8 h; in series [1] (Mouse 7, single PO dose 300 mg/kg, plasma) it was 8.00 h; in series [1] (setting [4]), 12.0 h. Also, the half-life in series [3] (Female SD rats, brain) is 12.8 h; in series [3] (Female SD rats, plasma), 16.9 h; in series [3] (Male SD rats, brain) it was 7.43 h; in series [3] (Male SD rats, plasma), 9.13 h; in series [1] (female, NOD/SCID, mouse, plasma, po, 300 mg/kg, Mouse 7, single PO dose 300 mg/kg), 4.03 h. The AUC(0-inf) stood at 266 µg·h/mL in series [3] (Female SD rats, plasma) and 102 µg·h/mL in series [3] (Male SD rats, plasma). In series [1] (setting [10]), this compound displayed an AUClast of 835.713 µg·h/mL. In addition, the “mouse oral exposure levels compared with crystalline Form A (freebase)” value in series [1] (at about 300 mg/kg) is on record as “higher exposure levels”.
As usually defined, the AUC(0-t) is the area under the concentration-time curve up to a stated or last time point. A high value points to high exposure. Turning to `COc1ncnc(C2CC2)c1-c1ncc2cnn(Cc3ccc(-c4nc(C(F)(F)F)cn4C(C)C)cc3)c2n1` [Crystalline Form 8, 6-(4-cyclopropyl-6-methoxypyrimidin-5-yl)-1-(4-(1-isopropyl-4-(trifluoromethyl)-1H-imidazol-2-yl)benzyl)-1H-pyrazolo[3,4-d]pyrimidine], the Cmax was 14770 ng/mL in series [1] (setting [9]); 8810 ng/mL in series [1] (female, NOD/SCID, mouse, plasma, po, 300 mg/kg, Mouse 10, single PO dose 300 mg/kg, plasma, read-out: Cmax); 18200 ng/mL in series [1] (female, NOD/SCID, mouse, plasma, po, 300 mg/kg, Mouse 11, single PO dose 300 mg/kg, plasma, read-out: Cmax); 17300 ng/mL in series [1] (female, NOD/SCID, mouse, plasma, po, 300 mg/kg, Mouse 12, single PO dose 300 mg/kg, plasma, read-out: Cmax). In series [1] (setting [9]), the T1/2 was found to be 6.8 h. Further, the time of peak concentration (Tmax) in series [1] (setting [9]) worked out at 3.50 h; in series [1] (female, NOD/SCID, mouse, plasma, po, 300 mg/kg, Mouse 10, single PO dose 300 mg/kg, plasma, read-out: Tmax), 8 h; in series [1] (female, NOD/SCID, mouse, plasma, po, 300 mg/kg, Mouse 11, single PO dose 300 mg/kg, plasma, read-out: Tmax) it was 0.5 h; in series [1] (female, NOD/SCID, mouse, plasma, po, 300 mg/kg, Mouse 12, single PO dose 300 mg/kg, plasma, read-out: Tmax), 2 h. In series [1] (Mean, female NOD/SCID mice, single PO dose 300 mg/kg, plasma, sampling to 24 h (to 72 h for Form 2), 300 mg/kg), this compound returned an AUClast of 182.045 µg·h/mL. In addition, the exposure AUC(0-t) in series [1] (female, NOD/SCID, mouse, plasma, po, 300 mg/kg, Mouse 10, single PO dose 300 mg/kg) was determined as 145 µg·h/mL; in series [1] (setting [11]), 168 µg·h/mL; in series [1] (setting [12]), 233 µg·h/mL. Besides, the half-life in series [1] (setting [11]) was 11.4 h; in series [1] (setting [12]), 2.08 h.

The values above are taken from US11718624B2, “Solid state forms of substituted pyrazolopyrimidines and uses thereof” (KSQ Therapeutics, Inc., priority 2020, dated 2023).
